In US8507510B2, “Sulfoximine-substituted pyrimidines as CDK- and/or VEGF inhibitors, their production and use as pharmaceutical agents” (Bayer Intellectual Property GmbH, priority 2003, dated 2013):

Tests used:
DU145 = assay: Proliferation assay, DU145; assay type: cell-based, human; details: DU145 cells, 4 days, crystal violet
Excerpt: (§1) Cultivated human tumor cells (MCF7, […] human breast cancer cells, related to ATCC HTB22; NCI-H460, human non-small-cell lung cancer cells, ATCC HTB-177, HCT 116, human colon cancer cells, ATCC CCL-247; DU 145, hormone-independent human prostate cancer cells, ATCC HTB-81; MaTu-MDR, hormone-independent, multiple pharmaceutical agent-resistant human breast cancer cells, EPO-GmbH, Berlin) were flattened out at a density of about 5000 cells/measuring point, depending on the growth rate of the respective cells, in a 96-well multititer plate in 200 μl of the corresponding growth medium. After 24 hours, the cells of one plate (zero-point plate) were colored with crystal violet (see below), while the medium of the other plates was replaced by fresh culture medium (200 μl), to which the test substances were added in various concentrations (0 μm, as well as in the range of 0.01-30 μm; the final concentration of the solvent dimethyl sulfoxide was 0.5%). The cells were incubated for 4 days in the presence of test substances. The cell proliferation was determined by coloring the cells with crystal violet: the cells were fixed by adding 20 μl/measuring point of an 11% glutaric aldehyde solution for 15 minutes at room temperature. After three washing cycles of the fixed cells with water, the plates were dried at room temperature. The cells were colored by adding 100 μl/measuring point of a 0.1% crystal violet solution (the pH was set at 3 by adding acetic acid). After three washing cycles of the colored cells with water, the plates were dried at room temperature. The dye was dissolved by adding 100 μl/measuring point of a 10% acetic acid solution. The extinction was determined by photometry at a wavelength of 595 nm The change of cell growth, in percent, was calculated by normalization of the measured values to the extinction values of the zero-point plate (=0%) and the extinction of the untreated (0 μm) cells (=100%).

MCF7 = assay: Proliferation assay, MCF7; assay type: cell-based, human; details: MCF7 cells, 4 days, crystal violet
Excerpt: as §1

H460 = assay: Proliferation assay, H460; assay type: cell-based, human; details: H460 cells, 4 days, crystal violet
Excerpt: as §1

MaTu-ADR = assay: Proliferation assay, MaTu-ADR; assay type: cell-based, human; details: MaTu-ADR cells, 4 days, crystal violet
Excerpt: as §1

CDK2/CycE = CDK2/CycE (Homo sapiens (Human), UniProt P24941); assay: CDK2/CycE kinase assay; assay type: biochemical; details: histone IIIS substrate, 0.5 μm ATP
Protocol: Recombinant CDK2- and CycE-GST-fusion proteins, purified from baculovirus-infected insect cells (Sf9), were purchased by ProQinase GmbH, Freiburg. Histone IIIs, which was used as a kinase substrate, was purchased by the Sigma Company.
CDK2/CycE (50 ng/measuring point) was incubated for 15 minutes at 22° C. in the presence of various concentrations of test substances (0 μm, as well as within the range of 0.01-100 μm) in assay buffer [50 mmol of tris/HCl, pH 8.0, 10 mmol of MgCl2, 0.1 mmol of Na ortho-vanadate, 1.0 mmol of dithiothreitol, 0.5 μm of adenosine triphosphate (ATP), 10 μg/measuring point of histone IIIS, 0.2 μCi/measuring point of ^33P-gamma ATP, 0.05% NP40, 12.5% dimethyl sulfoxide]. The reaction was stopped by adding EDTA solution (250 mmol, pH 8.0, 14 μl/measuring point).
From each reaction batch, 10 μl was applied to P30 filter strips (Wallac Company), and non-incorporated ^33P-ATP was removed by subjecting the filter strips to three washing cycles for 10 minutes each in 0.5% phosphoric acid. After the filter strips were dried for one hour at 70° C., the filter strips were covered with scintillator strips (MeltiLex™ A, Wallac Company) and baked for one hour at 90° C. The amount of incorporated ^33P (substrate phosphorylation) was determined by scintillation measurement in a gamma-radiation measuring device (Wallac).

Row | Structure (SMILES) | IC50 (DU145; Homo sapiens, DU-145, 96 h) [nM] | IC50 (MCF7) [nM] | IC50 (MCF7; Homo sapiens, MCF7, 96 h) [nM] | also measured
1 | CCS(=N)(=O)c1ccc(Nc2ncc(Br)c(N[C@H](C)C(C)(C)O)n2)cc1 (mixture of isomers) [Example 1.54, (RS)—S-[4-({5-bromo-4-[(R)-(2-hydroxy-1,2-dimethylpropyl)amino]pyrimidin-2-yl}amino)phenyl]-S-ethyl sulfoximide] | 190 | 110 | – | IC50 (H460): 120 nM
2 | Cc1cc(Nc2ncc(Br)c(N[C@H](C)C(C)(C)O)n2)ccc1S(C)(=N)=O (mixture of isomers) [Example 1.58, (RS)-S-[4-({5-bromo-4-[(R)-(2-hydroxy-1,2-dimethylpropyl)amino]pyrimidin-2-yl}amino)-2-methylphenyl]-S-methyl sulfoximide] | – | 60 | – | IC50 (DU145): 30 nM; IC50 (H460): 30 nM; IC50 (MaTu-ADR): 40 nM
3 | CN=S(C)(=O)c1ccc(Nc2ncc(Br)c(N[C@H](C)[C@@H](C)O)n2)cc1 (mixture of isomers) [Example 1.30, (RS)-S-[4-({5-bromo-4-[(1R,2R)-(2-hydroxy-1-methylpropyl)amino]pyrimidin-2-yl}amino)phenyl]-N,S-dimethyl-sulfoximide] | – | 170 | – | –
4 | C[C@@H](Nc1nc(Nc2ccc(S(C)(=N)=O)cc2)ncc1Br)C(C)(C)O (single isomer, unassigned) [Example 1.42] | 170 | – | 150 | IC50 (H460; Homo sapiens, NCI-H460, 96 h): < 100 nM; IC50 (MaTu-ADR; Homo sapiens, 96 h): < 100 nM
5 | CN=S(C)(=O)c1ccc(Nc2ncc(Br)c(N[C@H](C)[C@@H](C)O)n2)cc1 (mixture of isomers) [Example 1.29, (RS)-S-[4-({5-bromo-4-[(1R,2R)-(2-hydroxy-1-methylpropyl)amino]pyrimidin-2-yl}amino)phenyl]-N,S-dimethyl-sulfoximide] | – | 170 | – | –
6 | CCS(=N)(=O)c1ccc(Nc2ncc(Br)c(N[C@H](COC)[C@@H](C)O)n2)cc1 (single isomer, unassigned) [Example 1.50] | – | – | 1200 | –
7 | CCS(=N)(=O)c1ccc(Nc2ncc(Br)c(N[C@H](C)[C@@H](C)O)n2)cc1 (mixture of isomers) [Example 1.51, (RS)—S-[4-({5-bromo-4-[(1R,2R)-(2-hydroxy-1-methylpropyl)amino]pyrimidin-2-yl}amino)phenyl]-S-ethyl sulfoximide] | – | – | 80 | –
8 | CCS(=N)(=O)c1ccc(Nc2ncc(Br)c(N[C@H](COC)[C@@H](C)O)n2)cc1 (mixture of isomers) [Example 1.49, (RS)-S-{4-[(5-bromo-4-{[(1R,2R)-2-hydroxy-1-(methoxymethyl)-propyl]amino}pyrimidin-2-yl)amino]phenyl}-S-ethyl sulfoximide] | – | 300 | – | IC50 (DU145): 300 nM; IC50 (H460): 400 nM; IC50 (MaTu-ADR): 600 nM
9 | CCS(=N)(=O)c1ccc(Nc2ncc(Br)c(N[C@H](C)[C@@H](C)O)n2)cc1 (mixture of isomers) [Example 1.52, (RS)-S-[4-({5-bromo-4-[(1R,2R)-(2-hydroxy-1-methylpropyl)amino]pyrimidin-2-yl}amino)phenyl]-S-ethyl sulfoximide] | – | < 100 | – | –
10 | CCS(=N)(=O)c1ccc(Nc2ncc(Br)c(N[C@H](C)C(C)(C)O)n2)cc1 (mixture of isomers) [Example 1.55, (RS)-S-[4-({5-bromo-4-[(R)-(2-hydroxy-1,2-dimethylpropyl)amino]pyrimidin-2-yl}amino)phenyl]-S-ethyl sulfoximide] | – | 300 | – | IC50 (DU145): 300 nM; IC50 (H460): 300 nM; IC50 (MaTu-ADR): 150 nM
11 | Cc1cc(Nc2ncc(Br)c(N[C@H](C)C(C)(C)O)n2)ccc1S(C)(=N)=O (single isomer, unassigned) [Example 1.59] | < 100 | – | 110 | IC50 (H460; Homo sapiens, NCI-H460, 96 h): < 100 nM; IC50 (MaTu-ADR; Homo sapiens, 96 h): < 100 nM
12 | C[C@@H](O)[C@@H](C)Nc1nc(Nc2ccc(S(=N)(=O)CCO)cc2)ncc1Br (single isomer, unassigned) [Example 1.19] | – | – | < 100 | –
13 | COC[C@@H](Nc1nc(Nc2ccc(S(C)(=N)=O)cc2)ncc1Br)[C@@H](C)O (single isomer, unassigned) [Example 1.47] | 600 | – | 600 | IC50 (H460; Homo sapiens, NCI-H460, 96 h): 600 nM; IC50 (CDK2/CycE): 6 nM; IC50 (MaTu-ADR; Homo sapiens, 96 h): 800 nM
14 | CCS(=N)(=O)c1ccc(Nc2ncc(Br)c(N[C@H](C)[C@@H](C)O)n2)cc1 (single isomer, unassigned) [Example 1.53] | – | – | 300 | IC50 (CDK2/CycE): 4 nM
15 | Cc1cc(Nc2ncc(Br)c(N[C@H](C)C(C)(C)O)n2)ccc1S(C)(=N)=O (mixture of isomers) [Example 1.57, (RS)—S-[4-({5-bromo-4-[(R)-(2-hydroxy-1,2-dimethylpropyl)amino]pyrimidin-2-yl}amino)-2-methylphenyl]-S-methyl sulfoximide] | – | – | – | IC50 (DU145): 110 nM; IC50 (H460): 120 nM; IC50 (MaTu-ADR): 90 nM
16 | C[C@@H](O)[C@@H](C)Nc1nc(Nc2ccc(S(=N)(=O)CCO)cc2)ncc1Br (mixture of isomers) [Example 1.18, (RS)-S-[4-({5-bromo-4-[(1R,2R)-(2-hydroxy-1-methyl-propyl)amino]pyrimidin-2-yl}amino)phenyl]-S-(2-hydroxyethyl)sulfoximide] | – | – | < 100 | –
17 | CCS(=N)(=O)c1ccc(Nc2ncc(Br)c(N[C@H](C)C(C)(C)O)n2)cc1 (single isomer, unassigned) [Example 1.56] | – | – | 20 | IC50 (H460; Homo sapiens, NCI-H460, 96 h): 100 nM; IC50 (MaTu-ADR; Homo sapiens, 96 h): 50 nM
18 | COc1cc(Nc2ncc(Br)c(N[C@H](C)[C@@H](C)O)n2)ccc1S(C)(=N)=O (mixture of isomers) [Example 1.26, (RS)-S-[4-({5-bromo-4-[(1R,2R)-(2-hydroxy-1-methylpropyl)amino]pyrimidin-2-yl}amino)-2-methoxyphenyl]-S-methyl sulfoximide] | – | 60 | – | –
19 | COc1cc(Nc2ncc(Br)c(N[C@H](C)[C@@H](C)O)n2)ccc1S(C)(=N)=O (single isomer, unassigned) [Example 1.27] | 130 | – | 60 | IC50 (H460; Homo sapiens, NCI-H460, 96 h): 20 nM
20 | C[C@@H](Nc1nc(Nc2ccc(S(=N)(=O)CCO)cc2)ncc1Br)C(C)(C)O (mixture of isomers) [Example 1.14, (RS)-S-[4-({5-bromo-4-[(R)-(2-hydroxy-1,2-dimethylpropyl)amino]pyrimidin-2-yl}amino)phenyl]-S-(2-hydroxyethyl)-sulfoximide] | 90 | – | – | IC50 (MaTu-ADR; Homo sapiens, 96 h): 110 nM
21 | CCS(=N)(=O)c1ccc(Nc2ncc(Br)c(N[C@H](COC)[C@@H](C)O)n2)cc1 (mixture of isomers) [Example 1.48, (RS)—S-{4-[(5-bromo-4-{[(1R,2R)-2-hydroxy-1-(methoxymethyl)-propyl]amino}pyrimidin-2-yl)amino]phenyl}-S-ethyl sulfoximide] | – | – | 300 | –
22 | COC[C@@H](Nc1nc(Nc2ccc(S(C)(=N)=O)cc2)ncc1Br)[C@@H](C)O (mixture of isomers) [Example 1.46, (RS)-S-{4-[(5-bromo-4-{[(1R,2R)-2-hydroxy-1-(methoxymethyl)-propyl]amino}pyrimidin-2-yl)amino]phenyl}-S-methyl sulfoximide] | 170 | – | 200 | IC50 (H460; Homo sapiens, NCI-H460, 96 h): 110 nM; IC50 (MaTu-ADR; Homo sapiens, 96 h): 200 nM
